Experimental data from PubChem BioAssay AID330 (DTP/NCI, 2004).
Several values for one entry are separate records, joined by “and”; a condition that tells them apart may be missing. Equal values may be shown once. Toxic doses and inconclusive results are not listed.

Test system: P388 leukemia ip, CD2F1 mice, survival T/C
Assay: NCI In Vivo Anticancer Drug Screen. Data for tumor model P388 Leukemia (intraperitoneal) in CD2F1 (CDF1) mice
Details: endpoint: median survival time, higher = longer survival
Summary of the method: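 Mice carrying the transplanted tumor received test compound or vehicle. Survival was recorded in each group, and the value is the treated-group measurement divided by that of the vehicle-treated control group.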

[1] = dose: 25.0 mg/kg/injection, schedule: Q01DX009 (ip), vehicle: saline with Tween-80
[2] = dose: 50.0 mg/kg/injection, schedule: Q01DX009 (ip), vehicle: saline with Tween-80
[3] = dose: 100.0 mg/kg/injection, schedule: Q01DX009 (ip), vehicle: saline with Tween-80
[4] = dose: 200.0 mg/kg/injection, schedule: Q01DX009 (ip), vehicle: saline with Tween-80
[5] = dose: 50.0 mg/kg/injection, schedule: Q01DX005 (ip), vehicle: Klucel (hydroxypropylcellulose) (HPC)
[6] = dose: 100.0 mg/kg/injection, schedule: Q01DX005 (ip), vehicle: Klucel (hydroxypropylcellulose) (HPC)
[7] = dose: 200.0 mg/kg/injection, schedule: Q01DX005 (ip), vehicle: Klucel (hydroxypropylcellulose) (HPC)
[8] = dose: 50.0 mg/kg/injection, schedule: Q01DX005 (ip), vehicle: saline with Tween-80
[9] = dose: 200.0 mg/kg/injection, schedule: Q01DX005 (ip), vehicle: saline with Tween-80
[10] = dose: 60.0 mg/kg/injection, schedule: Q01DX005 (ip), vehicle: saline with Tween-80
[11] = dose: 120.0 mg/kg/injection, schedule: Q01DX005 (ip), vehicle: saline with Tween-80
[12] = dose: 240.0 mg/kg/injection, schedule: Q01DX005 (ip), vehicle: saline with Tween-80
[13] = dose: 50.0 mg/kg/injection, schedule: Q01DX009 (ip), vehicle: Klucel (hydroxypropylcellulose) (HPC)
[14] = dose: 100.0 mg/kg/injection, schedule: Q01DX009 (ip), vehicle: Klucel (hydroxypropylcellulose) (HPC)
[15] = dose: 200.0 mg/kg/injection, schedule: Q01DX009 (ip), vehicle: Klucel (hydroxypropylcellulose) (HPC)
[16] = dose: 25.0 mg/kg/injection, schedule: Q01DX009 (ip), vehicle: saline
[17] = dose: 50.0 mg/kg/injection, schedule: Q01DX009 (ip), vehicle: saline
[18] = dose: 100.0 mg/kg/injection, schedule: Q01DX009 (ip), vehicle: saline

O=C(C/C(=N\C(=S)Nc1cc(C(F)(F)F)ccc1Cl)NO)N1CCCC1
T/C [1]: 101 % of control and 116 % of control
T/C [2]: 105 % of control and 112 % of control
T/C [3]: 117 % of control
T/C [4]: 117 % of control

Cc1nnsc1-c1nc2ccccc2[nH]1
T/C [5]: 95 % of control
T/C [6]: 102 % of control
T/C [7]: 104 % of control

Cc1cc(C)c2nc(C)c(C)[n+]([O-])c2c1
T/C [8]: 101 % of control
T/C (dose: 100.0 mg/kg/injection, schedule: Q01DX005 (ip), vehicle: saline with Tween-80): 100 % of control
T/C [9]: 100 % of control

Cc1cccc2c1Oc1ccccc1C2NC(=O)c1ccccc1 (stereo unspecified)
T/C (dose: 12.5 mg/kg/injection, schedule: Q01DX005 (ip), vehicle: saline with Tween-80): 86 % of control
T/C (dose: 25.0 mg/kg/injection, schedule: Q01DX005 (ip), vehicle: saline with Tween-80): 89 % of control
T/C [8]: 86 % of control and 88 % of control
T/C [9]: 87 % of control

Cc1ccccc1CC(C)c1ccccc1 (stereo unspecified)
T/C [2]: 100 % of control
T/C [3]: 123 % of control

COc1cccc(C(c2cc3c(cc2O)OCO3)N2CCOCC2)c1OC (stereo unspecified)
T/C [10]: 119 % of control
T/C [11]: 119 % of control
T/C [12]: 117 % of control

CC(C)(C)OC(=O)NC(CCCCNC(=O)C(F)(F)F)C(=O)O (stereo unspecified)
T/C [13]: 108 % of control
T/C [14]: 104 % of control
T/C [15]: 102 % of control

OC(C1CO1)C(O)C1CO1 (stereo unspecified)
T/C (dose: 0.5 mg/kg/injection, schedule: Q01DX005 (ip), vehicle: saline): 113 % of control and 124 % of control
T/C (dose: 0.5 mg/kg/injection, schedule: Q01DX009 (ip), vehicle: water): 175 % of control
T/C (dose: 1.0 mg/kg/injection, schedule: Q01DX009 (ip), vehicle: saline): 167 % of control and 179 % of control
T/C (dose: 1.0 mg/kg/injection, schedule: Q01DX009 (ip), vehicle: water): 185 % of control
T/C (dose: 1.3 mg/kg/injection, schedule: Q01DX005 (ip), vehicle: saline): 121 % of control
T/C (dose: 1.5 mg/kg/injection, schedule: Q01DX009 (ip), vehicle: saline): 155 % of control and 196 % of control
T/C (dose: 2.0 mg/kg/injection, schedule: Q01DX009 (ip), vehicle: saline with Tween-80): 159 % of control
T/C (dose: 2.0 mg/kg/injection, schedule: Q01DX009 (ip), vehicle: saline): 194 % of control and 207 % of control
T/C (dose: 2.0 mg/kg/injection, schedule: Q01DX009 (ip), vehicle: water): 256 % of control
T/C (dose: 3.0 mg/kg/injection, schedule: Q01DX005 (ip), vehicle: saline): 170 % of control and 181 % of control
T/C (dose: 3.0 mg/kg/injection, schedule: Q01DX009 (ip), vehicle: saline): 227 % of control
T/C (dose: 4.0 mg/kg/injection, schedule: Q01DX005 (ip), vehicle: saline): 216 % of control and 229 % of control
T/C (dose: 4.0 mg/kg/injection, schedule: Q01DX009 (ip), vehicle: saline with Tween-80): 213 % of control
T/C (dose: 4.0 mg/kg/injection, schedule: Q01DX009 (ip), vehicle: saline): 291 % of control
T/C (dose: 4.5 mg/kg/injection, schedule: Q01DX005 (ip), vehicle: saline): 190 % of control and 225 % of control
T/C (dose: 6.0 mg/kg/injection, schedule: Q01DX009 (ip), vehicle: saline): 89 % of control
T/C (dose: 6.7 mg/kg/injection, schedule: Q01DX001 (ip), vehicle: saline): 157 % of control and 179 % of control
T/C (dose: 6.7 mg/kg/injection, schedule: Q01DX005 (ip), vehicle: saline): 266 % of control
T/C (dose: 6.7 mg/kg/injection, schedule: Q04DX003 (ip), vehicle: saline): 243 % of control and 254 % of control
T/C (dose: 8.0 mg/kg/injection, schedule: Q01DX005 (ip), vehicle: saline): 89 % of control
T/C (dose: 8.0 mg/kg/injection, schedule: Q01DX009 (ip), vehicle: saline with Tween-80): 100 % of control
T/C (dose: 8.0 mg/kg/injection, schedule: Q01DX009 (ip), vehicle: saline): 103 % of control
T/C (dose: 10.0 mg/kg/injection, schedule: Q04DX003 (ip), vehicle: saline): 281 % of control and 298 % of control
T/C (dose: 12.5 mg/kg/injection, schedule: Q04DX003 (ip), vehicle: saline): 108 % of control
T/C [1]: 100 % of control
T/C (dose: 25.0 mg/kg/injection, schedule: Q04DX003 (ip), vehicle: saline sonified): 100 % of control
T/C [2]: 104 % of control
T/C (dose: 50.0 mg/kg/injection, schedule: Q04DX003 (ip), vehicle: saline sonified): 100 % of control
T/C [3]: 109 % of control
T/C (dose: 100.0 mg/kg/injection, schedule: Q04DX003 (ip), vehicle: saline sonified): 104 % of control

CC(CCc1ccccc1)NC(C)C(O)c1ccc(O)cc1 (stereo unspecified)
T/C [1]: 100 % of control
T/C [2]: 100 % of control
T/C [3]: 90 % of control

Cc1cc(Br)c(N)c(C(O)(C(F)(F)F)C(F)(F)F)c1
T/C [13]: 91 % of control
T/C [14]: 97 % of control
T/C [15]: 108 % of control

CCOC(=O)Cn1nc([O-])[n+]2ccccc12
T/C (dose: 100.0 mg/kg/injection, schedule: Q04DX002 (ip), vehicle: saline): 100 % of control
T/C (dose: 200.0 mg/kg/injection, schedule: Q04DX002 (ip), vehicle: saline): 107 % of control
T/C (dose: 400.0 mg/kg/injection, schedule: Q04DX002 (ip), vehicle: saline): 98 % of control

C=CCN(CC=C)c1cc(NN)nnc1Cl
T/C (dose: 25.0 mg/kg/injection, schedule: Q01DX009 (ip), vehicle: other): 102 % of control
T/C (dose: 50.0 mg/kg/injection, schedule: Q01DX009 (ip), vehicle: other): 105 % of control

O=C1C2(CC3C=CC2C3)C(=O)C12CC1C=CC2C1 (stereo unspecified)
T/C [2]: 102 % of control
T/C [3]: 100 % of control
T/C [4]: 103 % of control

Clc1nc(Cl)c2[nH]c(Cl)nc2n1
T/C [5]: 99 % of control
T/C [6]: 99 % of control
T/C [7]: 102 % of control

O=C(Nn1c(=O)[nH]c2ccccc2c1=O)c1ccc(Cl)cc1
T/C (dose: 60.0 mg/kg/injection, schedule: Q01DX005 (ip), vehicle: Klucel (hydroxypropylcellulose) (HPC)): 98 % of control
T/C (dose: 120.0 mg/kg/injection, schedule: Q01DX005 (ip), vehicle: Klucel (hydroxypropylcellulose) (HPC)): 93 % of control
T/C (dose: 240.0 mg/kg/injection, schedule: Q01DX005 (ip), vehicle: Klucel (hydroxypropylcellulose) (HPC)): 90 % of control

C[CH2][Sn]=[O].c1cc[c]([Ge]([c]2ccccc2)[c]2ccccc2)cc1
T/C [16]: 96 % of control
T/C [17]: 88 % of control and 93 % of control and 96 % of control
T/C [18]: 101 % of control and 88 % of control
T/C (dose: 200.0 mg/kg/injection, schedule: Q01DX009 (ip), vehicle: saline): 121 % of control and 88 % of control and 96 % of control

CNC(=O)CC(=O)NC
T/C (dose: 100.0 mg/kg/injection, schedule: Q04DX003 (ip), vehicle: suspension in saline): 93 % of control
T/C (dose: 200.0 mg/kg/injection, schedule: Q04DX003 (ip), vehicle: suspension in saline): 100 % of control
T/C (dose: 400.0 mg/kg/injection, schedule: Q04DX003 (ip), vehicle: suspension in saline): 95 % of control

COC(=O)C(NC(N)=O)OC (stereo unspecified)
T/C [16]: 105 % of control
T/C [17]: 100 % of control
T/C [18]: 103 % of control

CN1CCC(O)(c2ccccc2)C(Br)C1 (stereo unspecified)
T/C (dose: 30.0 mg/kg/injection, schedule: Q01DX005 (ip), vehicle: saline): 100 % of control and 106 % of control
T/C (dose: 60.0 mg/kg/injection, schedule: Q01DX005 (ip), vehicle: saline): 100 % of control and 105 % of control and 110 % of control
T/C (dose: 120.0 mg/kg/injection, schedule: Q01DX005 (ip), vehicle: saline): 100 % of control and 116 % of control

CC1CC(=O)c2c(O)ccc(Cl)c21 (stereo unspecified)
T/C [5]: 106 % of control
T/C [6]: 104 % of control
T/C [7]: 100 % of control

COc1ccc(-c2nnc(N)o2)cc1OC
T/C [10]: 107 % of control
T/C [11]: 98 % of control
T/C [12]: 103 % of control

CCN(CC)Cc1cc(C(CC(=O)c2ccccc2)S(=O)(=O)c2ccc(C)cc2)ccc1O (stereo unspecified)
T/C (dose: 12.5 mg/kg/injection, schedule: Q01DX009 (ip), vehicle: saline with Tween-80): 88 % of control
T/C [1]: 89 % of control
T/C [17]: 93 % of control

COC1(OC)C2(Cl)C(Cl)=C(Cl)C1(Cl)C1CCCCCC12 (stereo unspecified)
T/C [10]: 97 % of control
T/C [11]: 97 % of control
T/C [12]: 101 % of control

CCOC(=O)c1c(C)[nH]c2c(-c3ccccc3)c3cc(Cl)ccc3nc12
T/C [13]: 103 % of control
T/C [14]: 109 % of control
T/C [15]: 104 % of control
T/C (dose: 400.0 mg/kg/injection, schedule: Q01DX009 (ip), vehicle: Klucel (hydroxypropylcellulose) (HPC)): 99 % of control
